Patent US10618918B2, “Substituted boronic acids as antimicrobials” (priority 2015, dated 2020)
Read-outs that look alike come from different tables or passages of the source.

Key:
KP1086 OXA-48 = assay: Biapenem potentiation (MPC@1), strain KP1086 OXA-48; format: cell-based; conditions: minimum BLI concentration inhibiting growth with biapenem 1 μg/mL; tested up to 40 μg/mL
Procedure: (§1) Biapenem was present in the test medium at 1 μg/mL. […] Table 3 summarizes the BLI potency of biapenem potentiation (MPC@1) for two strains overexpressing class A (KPC) and class D (OXA-48) carbapenemases. Biapenem MIC for each strain is also shown.

AB1053 OXA-72 = assay: Meropenem potentiation (MPC@8), strain AB1053 OXA-72; format: cell-based, Acinetobacter baumannii; conditions: minimum BLI concentration inhibiting growth with meropenem 8 μg/mL; tested up to 20 μg/mL
KP1010 SHV-12 = assay: Aztreonam potentiation (MPC@4), strain KP1010 SHV-12; conditions: minimum BLI concentration inhibiting growth with aztreonam 4 μg/mL; tested up to 40 μg/mL
ECL1002 = assay: Aztreonam potentiation (MPC@4), strain ECL1002; conditions: minimum BLI concentration inhibiting growth with aztreonam 4 μg/mL; tested up to 40 μg/mL
EC1010 CMY-6 = assay: Aztreonam potentiation (MPC@4), strain EC1010 CMY-6; conditions: minimum BLI concentration inhibiting growth with aztreonam 4 μg/mL; tested up to 40 μg/mL
[1] = target: T1, purified class A, C and D enzymes (β-lactamases) (UniProt P0AD64, L31Q/G234S/E235K, species not given); assay: biochemical; format: biochemical
T1 construct: Ki (SHV-12, NCF), uM; other: purified SHV-12; nitrocefin (NCF) as reporter substrate
T1 sequence (P0AD64 1-286 L31Q/G234S/E235K): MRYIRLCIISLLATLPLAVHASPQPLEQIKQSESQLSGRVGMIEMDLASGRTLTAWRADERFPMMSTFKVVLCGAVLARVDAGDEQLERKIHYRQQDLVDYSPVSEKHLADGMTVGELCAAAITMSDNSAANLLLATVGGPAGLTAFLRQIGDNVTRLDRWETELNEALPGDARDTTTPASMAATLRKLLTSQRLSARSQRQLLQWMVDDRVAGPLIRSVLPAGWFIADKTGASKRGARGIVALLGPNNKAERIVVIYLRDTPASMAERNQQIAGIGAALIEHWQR

[2] = target: purified class A, C and D enzymes (β-lactamases) (Klebsiella pneumoniae, UniProt Q9F663); assay: biochemical; format: biochemical; conditions: purified KPC-2; nitrocefin (NCF) as reporter substrate
[3] = target: T2, purified class A, C and D enzymes (β-lactamases) (Acinetobacter baumannii, UniProt Q9L4P2); assay: biochemical; format: biochemical; conditions: purified OXA-23; nitrocefin (NCF) as reporter substrate
T2 construct: rows headed: Ki (OXA-23, NCF), uM; other: purified OXA-23; nitrocefin (NCF) as reporter substrate
T2 sequence (Q9L4P2 whole entry): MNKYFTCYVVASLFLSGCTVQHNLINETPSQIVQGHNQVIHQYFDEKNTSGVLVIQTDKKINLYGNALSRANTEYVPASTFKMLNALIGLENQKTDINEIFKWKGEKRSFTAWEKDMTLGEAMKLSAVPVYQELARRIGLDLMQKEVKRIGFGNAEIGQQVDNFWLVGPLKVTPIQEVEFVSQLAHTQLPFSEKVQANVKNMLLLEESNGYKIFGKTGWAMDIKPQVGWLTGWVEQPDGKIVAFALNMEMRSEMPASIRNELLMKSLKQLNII

[4] = target: purified class A, C and D enzymes (β-lactamases) (Escherichia coli, UniProt Q9L5C7); assay: biochemical; format: biochemical; conditions: purified CTX-M-14; nitrocefin (NCF) as reporter substrate
purified class A, C and D enzymes (β-lactamases) (Escherichia coli, UniProt Q9L5C7), sequence (Q9L5C7 entry or part of it): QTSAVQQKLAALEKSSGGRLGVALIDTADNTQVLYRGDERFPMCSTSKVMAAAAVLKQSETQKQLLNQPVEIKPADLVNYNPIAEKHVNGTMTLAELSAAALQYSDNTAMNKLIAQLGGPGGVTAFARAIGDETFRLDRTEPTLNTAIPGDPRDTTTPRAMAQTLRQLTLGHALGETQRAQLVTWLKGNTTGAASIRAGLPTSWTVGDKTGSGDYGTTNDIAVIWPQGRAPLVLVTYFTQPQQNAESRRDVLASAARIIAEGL

[5] = target: purified class A, C and D enzymes (β-lactamases) (Enterobacter cloacae, UniProt P05364); assay: biochemical; format: biochemical
purified class A, C and D enzymes (β-lactamases) (Enterobacter cloacae, UniProt P05364), sequence (P05364 21-381): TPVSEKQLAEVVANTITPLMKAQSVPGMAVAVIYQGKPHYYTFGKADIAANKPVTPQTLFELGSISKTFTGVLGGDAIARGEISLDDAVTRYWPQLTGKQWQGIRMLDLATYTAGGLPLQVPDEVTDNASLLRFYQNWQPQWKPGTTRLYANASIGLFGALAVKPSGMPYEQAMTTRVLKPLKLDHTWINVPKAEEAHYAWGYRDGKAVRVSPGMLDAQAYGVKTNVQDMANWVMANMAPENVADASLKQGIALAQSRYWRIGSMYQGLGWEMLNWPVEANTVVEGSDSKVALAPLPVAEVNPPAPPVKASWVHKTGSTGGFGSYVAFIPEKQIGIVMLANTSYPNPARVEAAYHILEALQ

[6] = target: T3, purified class A, C and D enzymes (β-lactamases) (Pseudomonas aeruginosa, UniProt P24735); assay: biochemical; format: biochemical
T3 construct: rows headed: Ki (Pa-AmpC, NCF), uM; other: purified Pa-AmpC; nitrocefin (NCF) as reporter substrate
T3 sequence (P24735 whole entry): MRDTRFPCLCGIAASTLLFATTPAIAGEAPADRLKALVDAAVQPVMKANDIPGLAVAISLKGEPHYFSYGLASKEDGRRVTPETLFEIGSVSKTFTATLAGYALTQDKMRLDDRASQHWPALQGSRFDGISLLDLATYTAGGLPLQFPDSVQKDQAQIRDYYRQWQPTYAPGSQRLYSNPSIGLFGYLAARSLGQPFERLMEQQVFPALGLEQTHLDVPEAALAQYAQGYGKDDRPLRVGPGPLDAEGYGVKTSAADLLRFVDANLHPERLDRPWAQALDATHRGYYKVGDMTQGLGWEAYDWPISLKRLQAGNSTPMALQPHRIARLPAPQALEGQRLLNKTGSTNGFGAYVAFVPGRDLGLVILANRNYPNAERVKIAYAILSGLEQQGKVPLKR

[7] = target: purified class A, C and D enzymes (β-lactamases) (Klebsiella pneumoniae, UniProt Q6XEC0); assay: biochemical; format: biochemical; conditions: purified OXA-48; nitrocefin (NCF) as reporter substrate
ec308 SHV-5 = assay: Aztreonam potentiation (MPC@4), strain ec308 SHV-5; conditions: minimum BLI concentration inhibiting growth with aztreonam 4 μg/mL; tested up to 40 μg/mL
KP1009 CTX-M-15 = assay: Aztreonam potentiation (MPC@4), strain KP1009 CTX-M-15; conditions: minimum BLI concentration inhibiting growth with aztreonam 4 μg/mL; tested up to 40 μg/mL
AB1054 OXA-23 = assay: Meropenem potentiation (MPC@8), strain AB1054 OXA-23; format: cell-based, Acinetobacter baumannii; conditions: minimum BLI concentration inhibiting growth with meropenem 8 μg/mL; tested up to 20 μg/mL
KP1004 KPC-2 [8] = assay: Aztreonam potentiation (MPC@4), strain KP1004 KPC-2; conditions: minimum BLI concentration inhibiting growth with aztreonam 4 μg/mL; tested up to 40 μg/mL
KP1004 KPC-2 [9] = assay: Biapenem potentiation (MPC@1), strain KP1004 KPC-2; format: cell-based; conditions: minimum BLI concentration inhibiting growth with biapenem 1 μg/mL; tested up to 40 μg/mL
Procedure: as §1

KP1005 CTX-M-14 = assay: Tigemonam potentiation (MPC@4), strain KP1005 CTX-M-14; conditions: minimum BLI concentration inhibiting growth with tigemonam 4 μg/mL; tested up to 40 μg/mL
ec302 TEM-10 = assay: Aztreonam potentiation (MPC@4), strain ec302 TEM-10; conditions: minimum BLI concentration inhibiting growth with aztreonam 4 μg/mL; tested up to 40 μg/mL
[10] = read-out: Ki (SHV-12, NCF); purified SHV-12; nitrocefin (NCF) as reporter substrate

Structure (SMILES) | BPM MPC1 OXA-48 KP1086 (KP1086 OXA-48) | MPM MPC8 AB1053 OXA-72 (AB1053 OXA-72) | AZT MPC4 SHV-12 KP1010 (KP1010 SHV-12) | AZT MPC4 ECL1002 (ECL1002) | AZT MPC4 CMY-6 EC1010 (EC1010 CMY-6) | Ki [1, 10] | Ki (KPC-2, NCF), uM [2] | Ki [3] | Ki (CTX-M-14, NCF), uM [4] | Ki (P99, NCF), uM [5] | Ki [6] | Ki (OXA-48, NCF), uM [7] | AZT MPC4 SHV-5 ec308 (ec308 SHV-5) | AZT MPC4 CTX-M-15 KP1009 (KP1009 CTX-M-15) | MPM MPC8 AB1054 OXA-23 (AB1054 OXA-23) | AZT MPC4 KPC-2 KP1004 (KP1004 KPC-2 [8]) | BPM MPC1 KP1004 KPC-2 (KP1004 KPC-2 [9]) | TIG MPC4 CTX-M-14 KP1005 (KP1005 CTX-M-14) | AZT MPC4 TEM-10 ec302 (ec302 TEM-10) | also measured
NCCn1cc(COc2ccc3c(c2C(=O)O)O[B-](O)(O)CC3)nn1 [Compound 23, Disodium; 8-[[1-(2-aminoethyl)triazol-4-yl]methoxy]-4,4-dihydroxy-5-oxa-4-boranuidabicyclo[4.4.0]deca-1(6),7,9-triene-7-carboxylate] | X (X = MPC@1 ≤ 5 μg/mL) | X (X = MPC@1 ≤ 5 μg/mL) | X (X = MPC@4 ≤ 5 μg/mL) | X (X = MPC@4 ≤ 5 μg/mL) | X (X = MPC@4 ≤ 5 μg/mL) | < 100 nM | X (X = Ki ≤ 0.1 μM) | < 100 nM | X (X = Ki ≤ 0.1 μM) | X (key: X = Ki ≤ 0.1 μM; Y = 0.1 μM < Ki ≤ 1 μM; Z = Ki > 1 μM) | < 100 nM | X (X = Ki ≤ 0.1 μM) | Y (Y = 5 μg/mL < MPC@4 ≤ 20 μg/mL) | X (X = MPC@4 ≤ 5 μg/mL) | X (X = MPC@1 ≤ 5 μg/mL) | X (X = MPC@4 ≤ 5 μg/mL) | X (X = MPC@1 ≤ 5 μg/mL) | Z (Z = MPC@4 > 20 μg/mL) | X (X = MPC@4 ≤ 5 μg/mL) | 
C#CCOc1ccc2c(c1C(=O)O)OB(O)CC2 [Compound 25, 2-Hydroxy-7-prop-2-ynoxy-3,4-dihydro-1,2-benzoxaborinine-8-carboxylic acid] | X (X = MPC@1 ≤ 5 μg/mL) | X (X = MPC@1 ≤ 5 μg/mL) | X (X = MPC@4 ≤ 5 μg/mL) | X (X = MPC@4 ≤ 5 μg/mL) | X (X = MPC@4 ≤ 5 μg/mL) |  | X (X = Ki ≤ 0.1 μM) | < 100 nM | X (X = Ki ≤ 0.1 μM) |  |  | X (X = Ki ≤ 0.1 μM) | X (X = MPC@4 ≤ 5 μg/mL) | X (X = MPC@4 ≤ 5 μg/mL) | X (X = MPC@1 ≤ 5 μg/mL) | X (X = MPC@4 ≤ 5 μg/mL) | X (X = MPC@1 ≤ 5 μg/mL) | Z (Z = MPC@4 > 20 μg/mL) | X (X = MPC@4 ≤ 5 μg/mL) | Ki ([1]; purified SHV-12; nitrocefin (NCF) as reporter substrate; read-out: Ki (SHV-12, NCF)): < 100 nM; Ki (P99, NCF), uM ([5]; purified P99, nitrocefin (NCF) as reporter substrate): X (X = Ki ≤ 0.1 μM); Ki ([6]; purified Pa-AmpC, nitrocefin (NCF) as reporter substrate, read-out: Ki (Pa-AmpC, NCF)): < 100 nM
O=C([O-])c1c(OC(F)F)ccc2c1O[B-](O)(O)CC2.[Na+].[Na+] [Compound 56, Disodium; 8-(difluoromethoxy)-4,4-dihydroxy-5-oxa-4-boranuidabicyclo[4.4.0]deca-1(6),7,9-triene-7-carboxylate] | X (X = MPC@1 ≤ 5 μg/mL) | X (X = MPC@1 ≤ 5 μg/mL) | X (X = MPC@4 ≤ 5 μg/mL) | X (X = MPC@4 ≤ 5 μg/mL) | X (X = MPC@4 ≤ 5 μg/mL) | < 100 nM | X (X = Ki ≤ 0.1 μM) | < 100 nM | X (X = Ki ≤ 0.1 μM) | X (key: X = Ki ≤ 0.1 μM; Y = 0.1 μM < Ki ≤ 1 μM; Z = Ki > 1 μM) | < 100 nM | X (X = Ki ≤ 0.1 μM) | X (X = MPC@4 ≤ 5 μg/mL) | X (X = MPC@4 ≤ 5 μg/mL) | X (X = MPC@1 ≤ 5 μg/mL) | X (X = MPC@4 ≤ 5 μg/mL) | X (X = MPC@1 ≤ 5 μg/mL) | X (X = MPC@4 ≤ 5 μg/mL) | X (X = MPC@4 ≤ 5 μg/mL) | 
